Test results from paper PMC12723162, “Alphaherpesvirus pUL21 homologs use non-canonical sequences to compete with cellular adaptors for protein phosphatase 1 binding” (The Journal of Biological Chemistry, 2025).
Where two headings read alike, the source gives them in different places.

Tests used:
[1] = target: T1, PP1γ catalytic domain : GADD34 peptide pre-formed complex (Mus musculus, UniProt P63087); assay: Competition fluorescence anisotropy, displacement of FITC-GADD34 peptide from PP1γ (HEPES pH 8.0); assay type: binding; conditions: 2 nM fluorescent GADD34 peptide + 250 nM PP1γ; for Displacement of GADD34 peptide from PP1 by TROPPO peptides: competitor at over 1000-fold molar excess, HEPES pH 8.0, 500 mM NaCl, 0.05% TWEEN-20, 27 °C
T1 construct: mouse PP1γ catalytic domain (residues 7–300)-H6; His6 (C); made in house; host or cells: E. coli T7 Express lysY/Iq (PP1γ); tracer peptide synthesised by GenScript
T1 sequence (P63087 7-300, one chain of several): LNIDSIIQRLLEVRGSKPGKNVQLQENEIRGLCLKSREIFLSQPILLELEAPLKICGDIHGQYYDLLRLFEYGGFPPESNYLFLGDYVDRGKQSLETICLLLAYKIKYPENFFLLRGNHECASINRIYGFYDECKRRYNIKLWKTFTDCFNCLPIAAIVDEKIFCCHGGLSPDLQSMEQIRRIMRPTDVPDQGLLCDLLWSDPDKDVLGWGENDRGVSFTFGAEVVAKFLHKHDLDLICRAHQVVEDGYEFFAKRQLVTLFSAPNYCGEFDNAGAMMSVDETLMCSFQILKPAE
From the text: (§1) Bacterial expression plasmids encoding the mouse PP1γ catalytic domain (residues 7–300)-H6 and pUL21-H6, and mammalian expression vectors encoding pUL21(FV242AA)-GFP, pORF38-GFP and pORF38(FV255AA)-GFP, were described previously ([23]). We note that the mouse and human PP1γ catalytic domains share 100% amino acid identity. pORF38-NLT-H6 was generated by sub-cloning residues 1 to 263 of ORF38 into the vector pOPTnH ([52]). pUL21-RVxF-H6 was generated by inserting the mutations A237V and V239F into pUL21-H6 by QuikChange site-directed mutagenesis. Human PP1α was cloned from HeLa cell cDNA into a vector derived from pF5K (Promega) with an N-terminal Myc epitope tag via restriction-based cloning, and point mutations were introduced into Myc-PP1α by QuikChange mutagenesis. A plasmid encoding pUL21-GFP was generated by sub-cloning a codon-optimized synthetic UL21 gene (GeneArt) into pEGFP-N1 (Clontech), yielding an identical pUL21-GFP amino acid sequence as used in ([23]). pUL21-ΔL, -ΔR and -ΔLR were generated from this vector via inverse PCR, and point mutations were introduced via QuikChange mutagenesis.
Peptides were commercially synthesised to >95% purity (GenScript) as follows: GADD34 RVxF+ϕϕ[xF] […]
Proteins were expressed using E. coli T7 Express lysY/I^q cells (New England Biolabs) grown in 2 × TY medium at 37 °C to OD600 0.8 to 1.2 before cooling to 22 °C and induction of protein expression using 0.4 mM IPTG. […] Fractions were analysed by SDS-PAGE and those containing the desired protein were pooled, concentrated using centrifugal concentrators (Millipore) and stored at 4 °C (short-term) or snap-frozen in liquid nitrogen for long-term storage at −70 °C.
Fluorescence anisotropy was measured using a SpectraMax i3 microplate reader (Molecular Devices) with wavelengths 485 ± 20 nm (excitation) and 535 ± 25 nm (emission). Samples (100 μl per well) were dispensed into low-bind black half-area 96-well microtitre plates (Corning) and fluorescence anisotropy was recorded at 27 °C. […]

[2] = target: T2, PP1γ catalytic domain (7–300), C-terminally His6-tagged (Mus musculus, UniProt P63087); assay: Isothermal titration calorimetry (ITC); assay type: binding; design: key to KD / ∆H / ∆G / -T∆S / N (sites): –: no binding detected; conditions: for ITC heats of TROPPO peptides against PP1 catalytic domain: 500–1000 μM peptide titrated, 50 mM HEPES pH 8.0, 500 mM NaCl
T2 construct: mouse PP1γ catalytic domain (residues 7–300)-H6; made in house; host or cells: E. coli T7 Express lysY/Iq
T2 sequence (P63087 7-300): as the sequence (P63087 7-300, one chain of several) above
From the text: as §1
Proteins were expressed using E. coli T7 Express lysY/I^q cells (New England Biolabs) grown in 2 × TY medium at 37 °C to OD600 0.8 to 1.2 before cooling to 22 °C and induction of protein expression using 0.4 mM IPTG. Cells were harvested at 16 to 20 h post-induction and pellets stored at −70 °C until required. Cells were resuspended in chilled lysis buffer (20 mM Tris pH 7.5, 20 mM imidazole, 500 mM NaCl, 1.4 mM β-mercaptoethanol 0.5 mM MgCl2 and 0.05% TWEEN-20 [plus 1 mM MnCl2 for PP1]) that was supplemented with 200 μl EDTA-free protease inhibitor cocktail (Merck) and 400 U bovine DNase I (Merck). Cells were lysed using a TS series cell disruptor (Constant Systems) at 24 kpsi and lysates were clarified (40,000×g, 30 min, 4 °C) before incubation with Ni-NTA agarose (Qiagen) for 1 h at 4 °C. The resin was washed with ≥20 column volumes of wash buffer (20 mM Tris, 20 mM imidazole and 500 mM NaCl [plus 1 mM MnCl2 for PP1]) at pH 7.5 (PP1γ and pORF38-NLT) or pH 8.5 (pUL21 and pUL21-RVxF). Protein was eluted using wash buffer supplemented with additional imidazole (final concentration 250 mM) and proteins were subjected to size-exclusions chromatography using HiLoad 16/600 Superdex 75 (PP1) or Superdex 200 (other) columns equilibrated in 20 mM Tris pH 8.5, 500 mM NaCl, 1 mM DTT (for pUL21 and pUL21-RVxF) or 50 mM HEPES pH 8.0, 500 mM NaCl, 0.5 mM TCEP (for PP1 and pORF38-NLT). Fractions were analysed by SDS-PAGE and those containing the desired protein were pooled, concentrated using centrifugal concentrators (Millipore) and stored at 4 °C (short-term) or snap-frozen in liquid nitrogen for long-term storage at −70 °C.
ITC experiments were performed using a MicroCal PEAQ-ITC automated calorimeter (Malvern Panalytical). The solvent (ITC buffer) was 50 mM HEPES pH 8.0, 500 mM NaCl, 0.5 mM TCEP. Lyophilized peptides were dissolved into ITC buffer and their concentration was estimated from dry mass. Proteins were diluted in ITC buffer, and their concentration was estimated from the theoretical extinction coefficient at 280 nm ([53]). […] Data were analyzed using MicroCal PEAQ-ITC analysis software (Malvern Panalytical) and fitted using a one-site binding model.
Table S1. Isothermal titration calorimetry (ITC) of PP1 with TROPPO-containing peptides and proteins. Data for independent experiments are shown. For all, the cell contained C-terminally His6-tagged mouse PP1γ (7–300). –, no binding detected.

[3] = TROPPO peptides, independent experiment 1, syringe/cell µM: pUL21 1000/58.8, pORF38 1000/79.6
[4] = TROPPO peptides, independent experiment 1, syringe/cell µM: pUL21 1000/58.8, pORF38 1000/79.6, HEPES pH 8.0, 25 °C
[5] = TROPPO peptides, independent experiment 2, syringe/cell µM: pUL21 1000/54.5, pORF38 500/17.0
[6] = TROPPO peptides, independent experiment 2, syringe/cell µM: pUL21 1000/54.5, pORF38 500/17.0, HEPES pH 8.0, 25 °C
[7] = TROPPO peptide, independent experiment 3, syringe/cell µM: pORF38 500/16.0
[8] = independent experiment 1, 240 µM titrant, 17.0 µM PP1, HEPES pH 8.0, 25 °C
[9] = independent experiment 2, 147 µM titrant, 10.0 µM PP1, HEPES pH 8.0, 25 °C
[10] = independent experiment 3, 153 µM titrant, 9.5 µM PP1, HEPES pH 8.0, 25 °C

Molecule	Displacement of GADD34 peptide from PP1 by TROPPO peptides [1]	ITC heats of TROPPO peptides against PP1 catalytic domain ([2]; 0.5 mM TCEP, 25 °C)	-T∆S [2, 3]	N (sites) [2, 3]	∆G [2, 3]	∆H [2, 3]	KD [2, 4]	-T∆S [2, 5]	N (sites) [2, 5]	∆G [2, 5]	∆H [2, 5]	KD [2, 6]	other results
AKRATVSEFVQVKHIDR [pUL21 TROPPO, pUL21 TROPPO peptide (residues 234–250)]	Neither TROPPO-containing peptide was able to displace the GADD34 peptide	did not evolve heats above background levels	–	–	–	–	–	–	–	–	–	–	
KSDHITLSNFVQIRTIPR [pORF38 TROPPO, pORF38 TROPPO peptide (residues 246–263)]	Neither TROPPO-containing peptide was able to displace the GADD34 peptide	did not evolve heats above background levels	–	–	–	–	–	–	–	–	–	–	-T∆S [2, 7]: –; N (sites) [2, 7]: –; ∆G [2, 7]: –; ∆H [2, 7]: –; KD ([2]; TROPPO peptide, independent experiment 3, syringe/cell µM: pORF38 500/16.0, HEPES pH 8.0, 25 °C): –
pORF38-NLT: VZV pORF38 N-terminal domain plus Linker region up to the end of the TROPPO motif (residues 1 to 263) (protein, left off: His6, C-terminal, kept) MEFPYHSTVSYNGVTFYFNERATRAYFICGGCLISIPRKHGGEIAKFGHVVRGVGPGDRSVASYVRSELNRTGKTWAVSSNNNCVFLDRVALLAAGSGAVDRDLCGTFDVEVEDPTLADYLVSLPVTHLTLVAGVDVTRENKLKLFPTPTAINTTNGFMYVPNEASFSLVYMRMLELPESLQELVSGLFDGTPEIRDALNGSNDDEKTSIIVSRRAADVVTEDVKADDVPISGEPYSEKQPRRRKKSDHITLSNFVQIRTIPR													Competition with RVxF peptide for PP1 binding ([1]; increasing concentrations of pORF38-NLT, HEPES pH 8.0): competes with the RVxF peptide for PP1 binding; ΔH, mean ([2]; 25 °C, HEPES pH 8.0, average of three independent experiments): -13.3 kcal/mol; Kd ([2]; independent experiment 1, 240 µM titrant in syringe, 17.0 µM PP1 in cell, HEPES pH 8.0, 25 °C, read-out: KD): 719 nM; -T∆S [2, 8]: 4.76 kcal/mol; N (sites) [2, 8]: 1.21 sites; ∆G [2, 8]: -8.38 kcal/mol; ∆H [2, 8]: -13.1 kcal/mol; Kd ([2]; independent experiment 2, 147 µM titrant in syringe, 10.0 µM PP1 in cell, HEPES pH 8.0, 25 °C, read-out: KD): 540 nM; -T∆S [2, 9]: 4.72 kcal/mol; N (sites) [2, 9]: 0.965 sites; ∆G [2, 9]: -8.55 kcal/mol; ∆H [2, 9]: -13.3 kcal/mol; Kd ([2]; independent experiment 3, 153 µM titrant in syringe, 9.5 µM PP1 in cell, HEPES pH 8.0, 25 °C, read-out: KD): 231 nM; -T∆S [2, 10]: 4.5 kcal/mol; N (sites) [2, 10]: 0.838 sites; ∆G [2, 10]: -9.06 kcal/mol; ∆H [2, 10]: -13.6 kcal/mol; PP1 binding compared with GADD34 peptide ([2]; pORF38-NLT ITC versus GADD34 peptide by fluorescence anisotropy or ITC): substantially weaker binding than observed for the GADD34 peptide; Kd ([2]; pORF38-NLT titrated into PP1, HEPES pH 8.0, 500 mM NaCl, 0.5 mM TCEP, 25 °C, one-site model, mean ± SEM, three independent experiments, listed as pOPF38-NLT, read-out: Affinity (KD), mean): ~500 nM
